In article PMC7217483, “Early correction of synaptic long-term depression improves abnormal anxiety-like behavior in adult GluN2B-C456Y-mutant mice” (PLoS Biology, 2020):

Experiments:
GluN2B [1] = molecular target: T1, GluN2B (Mus musculus, UniProt P35439+Q01097); assay: potentiation of recombinant NMDAR currents in Xenopus oocytes; type: cell-based
T1 construct: gene Grin2b; recombinant diheteromeric GluN1/GluN2B receptor; with GluN1

GluN2B [2] = molecular target: T2, GluN2B (Mus musculus, UniProt P35439+Q01097, Q01097:C456Y, species not given); assay: as above; type: cell-based
T2 construct: gene Grin2b; recombinant diheteromeric GluN1/GluN2B-C456Y receptor; with GluN1
T2 sequence (Q01097 27-1482 C456Y, other chains not shown): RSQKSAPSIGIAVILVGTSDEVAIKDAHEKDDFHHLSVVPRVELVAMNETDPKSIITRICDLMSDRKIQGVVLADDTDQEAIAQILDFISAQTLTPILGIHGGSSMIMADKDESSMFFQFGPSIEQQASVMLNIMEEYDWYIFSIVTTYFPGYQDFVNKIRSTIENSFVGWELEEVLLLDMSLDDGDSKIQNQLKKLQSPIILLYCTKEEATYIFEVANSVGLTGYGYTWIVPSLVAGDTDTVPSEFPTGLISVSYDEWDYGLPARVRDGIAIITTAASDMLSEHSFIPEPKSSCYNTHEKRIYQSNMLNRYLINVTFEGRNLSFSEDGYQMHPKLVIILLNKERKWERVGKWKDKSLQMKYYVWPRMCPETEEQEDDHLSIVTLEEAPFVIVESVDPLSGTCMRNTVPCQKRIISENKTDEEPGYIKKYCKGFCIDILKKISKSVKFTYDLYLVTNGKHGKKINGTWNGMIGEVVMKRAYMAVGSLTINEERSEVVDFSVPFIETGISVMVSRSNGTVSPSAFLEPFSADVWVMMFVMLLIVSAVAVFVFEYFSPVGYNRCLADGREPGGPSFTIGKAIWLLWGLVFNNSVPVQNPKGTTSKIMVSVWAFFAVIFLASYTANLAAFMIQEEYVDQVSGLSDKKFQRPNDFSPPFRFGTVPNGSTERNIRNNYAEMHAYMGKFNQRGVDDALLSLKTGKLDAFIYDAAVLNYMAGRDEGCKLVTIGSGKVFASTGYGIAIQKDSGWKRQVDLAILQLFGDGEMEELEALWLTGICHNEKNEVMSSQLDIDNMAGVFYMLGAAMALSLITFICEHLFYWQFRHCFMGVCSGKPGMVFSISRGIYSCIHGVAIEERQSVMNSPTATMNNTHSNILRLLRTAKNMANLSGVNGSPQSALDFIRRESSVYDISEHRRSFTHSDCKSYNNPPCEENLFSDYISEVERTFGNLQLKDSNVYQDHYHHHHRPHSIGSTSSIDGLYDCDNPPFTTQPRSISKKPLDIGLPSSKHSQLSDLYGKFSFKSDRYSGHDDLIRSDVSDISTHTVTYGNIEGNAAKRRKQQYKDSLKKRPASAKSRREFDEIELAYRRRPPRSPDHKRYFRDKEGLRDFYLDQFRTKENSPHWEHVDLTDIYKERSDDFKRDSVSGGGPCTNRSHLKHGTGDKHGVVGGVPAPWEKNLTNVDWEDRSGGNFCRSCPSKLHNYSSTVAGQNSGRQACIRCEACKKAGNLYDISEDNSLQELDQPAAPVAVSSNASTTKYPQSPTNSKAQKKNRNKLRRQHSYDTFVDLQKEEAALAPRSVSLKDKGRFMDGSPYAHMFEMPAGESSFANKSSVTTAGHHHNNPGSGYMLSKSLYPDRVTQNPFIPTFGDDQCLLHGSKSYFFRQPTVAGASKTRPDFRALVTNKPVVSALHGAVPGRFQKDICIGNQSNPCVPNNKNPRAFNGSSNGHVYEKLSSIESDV

T1 sequence (Q01097 27-1482, other chains not shown): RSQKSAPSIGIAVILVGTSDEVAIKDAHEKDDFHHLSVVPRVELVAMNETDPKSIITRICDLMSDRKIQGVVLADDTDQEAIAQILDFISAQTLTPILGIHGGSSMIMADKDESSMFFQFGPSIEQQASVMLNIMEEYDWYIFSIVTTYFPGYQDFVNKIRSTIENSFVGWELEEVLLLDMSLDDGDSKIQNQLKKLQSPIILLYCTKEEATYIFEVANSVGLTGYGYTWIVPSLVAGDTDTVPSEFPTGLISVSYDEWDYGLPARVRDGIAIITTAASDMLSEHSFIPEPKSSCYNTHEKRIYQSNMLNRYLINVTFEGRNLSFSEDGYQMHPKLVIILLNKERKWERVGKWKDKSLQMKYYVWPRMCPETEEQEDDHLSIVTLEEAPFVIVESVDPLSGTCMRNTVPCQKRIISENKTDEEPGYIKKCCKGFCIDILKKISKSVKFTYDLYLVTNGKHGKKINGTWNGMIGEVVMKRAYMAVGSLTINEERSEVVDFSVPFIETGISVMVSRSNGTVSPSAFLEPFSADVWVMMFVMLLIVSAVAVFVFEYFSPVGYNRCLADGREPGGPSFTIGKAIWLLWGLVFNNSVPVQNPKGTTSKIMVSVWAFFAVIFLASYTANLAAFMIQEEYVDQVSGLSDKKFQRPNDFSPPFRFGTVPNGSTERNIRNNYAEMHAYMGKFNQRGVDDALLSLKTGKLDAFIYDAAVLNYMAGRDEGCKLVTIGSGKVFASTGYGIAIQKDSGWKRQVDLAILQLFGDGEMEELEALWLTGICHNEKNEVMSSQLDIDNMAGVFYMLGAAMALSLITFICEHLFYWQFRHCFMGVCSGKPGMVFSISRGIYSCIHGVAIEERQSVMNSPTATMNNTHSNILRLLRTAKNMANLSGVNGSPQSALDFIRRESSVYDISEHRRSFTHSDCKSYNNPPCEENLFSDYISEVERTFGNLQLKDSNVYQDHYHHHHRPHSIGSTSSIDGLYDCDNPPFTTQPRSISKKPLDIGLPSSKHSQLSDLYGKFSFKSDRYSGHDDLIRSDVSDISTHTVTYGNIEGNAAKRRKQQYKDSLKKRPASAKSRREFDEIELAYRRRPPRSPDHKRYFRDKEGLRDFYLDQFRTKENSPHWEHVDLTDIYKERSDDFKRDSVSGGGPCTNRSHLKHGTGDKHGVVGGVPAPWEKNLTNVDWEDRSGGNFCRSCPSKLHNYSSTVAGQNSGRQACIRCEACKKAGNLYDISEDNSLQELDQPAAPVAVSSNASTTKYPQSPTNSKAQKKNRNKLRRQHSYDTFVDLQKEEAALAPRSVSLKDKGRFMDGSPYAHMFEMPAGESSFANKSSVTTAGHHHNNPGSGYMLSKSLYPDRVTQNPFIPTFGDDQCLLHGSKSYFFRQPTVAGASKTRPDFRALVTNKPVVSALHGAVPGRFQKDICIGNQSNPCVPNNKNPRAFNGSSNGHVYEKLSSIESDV

NCCCNCCCCNCCCN [spermine] was tested, and the “potentiation of recombinant NMDAR currents in Xenopus oocytes” value (GluN2B [1]) was 9.45 spermine potentiation and the “potentiation of recombinant NMDAR currents in Xenopus oocytes” value (GluN2B [2]) was 2.83 spermine potentiation.
